Experimental findings from PubChem BioAssay (NCI) are described below.

Common to all, as to experiment: NCI-60 cell line screen, 48 h
In assay [1] the test system is OVCAR-4 ovarian.
Assay [2] has as its system COLO 205 colon.
The subject of assay [3] is SK-OV-3 ovarian.
For assay [4], the system named is SF-539 CNS.
Assay [5] deals with SK-MEL-28 melanoma.
In assay [6] the test system is MALME-3M melanoma.
Assay [7] has as its system U251 CNS.
Assay [8] deals with EKVX NSCLC.
Assay [9] deals with HOP-62 NSCLC.
The subject of assay [10] is RXF 393 renal.

Several values for one entry are separate records, joined by “and”; a condition that tells them apart may be missing. Equal values may be shown once.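 A five-concentration, 48-hour dose response in 96-well plates underlies each endpoint, interpolated linearly between surrounding concentrations. Here, GI50 denotes the concentration required for 50% inhibition of growth. TGI: concentration producing complete growth inhibition.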

On to `Nc1ccc(/C=C/C(=O)NCc2cc3cc(-c4ccc(C(=O)N5CCC(F)(F)CC5)cc4)cc(-c4ccc(F)cc4)c3o2)cn1`, for which the GI50 in assay [1] is above 71.5 µM; in assay [2], 0.327 µM; in assay [3] it was above 100 µM; in assay [4] it was 0.118 µM; in [5] it was above 100 µM; in assay [6] it was above 100 µM. The GI50 was 1.16 µM in assay [7], above 100 µM in [8], above 59.3 µM in assay [9] and 37.8 µM in assay [10]. The TGI is above 100 µM in assay [1]; above 62.9 µM in assay [2]; above 100 µM in assay [3]; above 100 µM in assay [4]; above 100 µM in assay [5]; above 100 µM in assay [6]. Besides, the TGI in assay [7], in [8], in assay [9] and in assay [10] was above 100 µM each time.

On to `CSc1nnc(COc2ccc(Cl)cc2)o1`, for which the TGI in assay [1], in [2], in assay [3], in [4], in assay [5] and in [6] was above 100 µM in each case. The TGI in assay [7], in [8], in assay [9] and in [10] was above 100 µM throughout.

`Cc1nc(C(N)=S)sc1C(=O)/C=C/c1c(O)ccc2ccccc12`: the TGI in assay [1], in [2], in [3], in [4], in [5] and in [6] was above 100 µM in each case. Moreover, the TGI in assay [7] is above 100 µM; in [8], above 100 µM; in [9], above 100 µM; in [10] it was 98.5 µM.

In the case of `CCCCn1c(-c2ccc(C(=O)O/N=C(\N)c3ccc4c(c3)OCO4)cc2)nc(-c2ccccc2)c1-c1ccccc1`, the GI50 is 3.5 µM in assay [1]; 2.69 µM in assay [2]; 7.13 µM in assay [3]; 3 µM in assay [4]; 5.69 µM in [5]; 1.78 µM in assay [6]. For the same compound, the GI50 in assay [7] was 2 µM; in assay [8], 2.07 µM; in assay [9], 1.82 µM; in assay [10] it was 1.85 µM. Further, the TGI in assay [1] was above 100 µM; in [2], 11 µM; in [3], above 100 µM; in [4], 10.2 µM; in [5] it was above 100 µM; in assay [6] it was 4.3 µM. In addition, the TGI came out at 5.24 µM in assay [7], 7.74 µM in assay [8], 4.03 µM in assay [9] and 4.93 µM in assay [10].

Consider `c1ccc2[nH]c(-c3ccc(Nc4nc(N5CCCCC5)nc(N5CCOCC5)n4)cc3)nc2c1`, for which the GI50 in assay [1] was 3.98 µM; in [2], 1.86 µM; in assay [3], 2.37 µM; in [4] it was 2.14 µM; in assay [5] it was 1.8 µM; in [6] it was 1.87 µM. Also, the GI50 was 2.18 µM in assay [7], 2.68 µM in [8], 1.92 µM in assay [9] and 0.808 µM in [10]. Also, the TGI in [1] was determined as 25.4 µM; in [2] it was 3.92 µM; in assay [3] it was 5.43 µM; in [4], 5.75 µM; in assay [5], 4.02 µM; in [6], 3.57 µM. The TGI in [7] was 10 µM; in assay [8], above 100 µM; in [9], 4.32 µM; in assay [10] it was 3.28 µM.

Turning to `CCNC(=O)c1noc(-c2cc(C(C)C)c(O)cc2O)c1-c1ccc(CN2CCOCC2)cc1`, the GI50 was 10.9 µM in [1]; 0.0787 µM in assay [2]; below 0.01 µM in assay [3]; 0.0662 µM in [4]; 0.055 µM in [5]; 0.025 µM in assay [6]. Also, the GI50 in assay [7] was below 0.0131 µM; in assay [8], 5.21 µM; in assay [9] it was 0.0532 µM; in assay [10], 0.0257 µM. Also, the TGI was above 100 µM in assay [1]; 5.64 µM in [2]; 22.3 µM in assay [3]; 26.3 µM in assay [4]; 22.7 µM in assay [5]; 12.1 µM in assay [6]. Besides, the TGI in assay [7] is 15.5 µM; in [8], above 100 µM; in assay [9], 29.4 µM; in assay [10], 17.8 µM.

For the compound `CC(C)(C)c1cc(C=C(C#N)C#N)cc(C(C)(C)C)c1O`, the GI50 was 0.523 µM in [1]; 0.363 µM and 0.191 µM in [2]; 0.229 µM and 0.302 µM in assay [3]; 0.376 µM in assay [4]; 0.778 µM in assay [5]; 0.507 µM in assay [6]. The GI50 in assay [7] was 0.359 µM; in [8], 0.518 µM and 0.825 µM; in assay [10], 0.482 µM. Moreover, the TGI in assay [1] is above 354 µM; in assay [2] it was 0.369 µM; in assay [4], 10.2 µM and 3.24 µM; in [5], 43.6 µM; in [6], 15.4 µM and 8.08 µM; in assay [7], 23.1 µM and 11.5 µM. Besides, the TGI in assay [8] was 46.3 µM; in assay [9], 6.87 µM and 1.65 µM; in assay [10] it was 14.3 µM and 10.5 µM.

Regarding `Nc1ncnc2c1ncn2CC(O)CO` (stereo unspecified), the TGI in assay [1], in assay [2], in assay [3], in assay [4], in assay [5] and in assay [6] was above 100 µM throughout. In addition, the TGI in [8] and in [10] was above 100 µM each time.

Consider `O=S(=O)(CCCl)c1ccc(Cl)cc1`, for which the GI50 in [1] is 2.22 µM; in assay [2] it was 3.74 µM; in [3], 11.7 µM; in [4], 2.46 µM; in [5], 2.38 µM; in assay [6] it was 2.23 µM. The GI50 in assay [7] is 10.1 µM; in assay [9] it was 15.7 µM; in assay [10], 2.32 µM. Moreover, the TGI in assay [1] turned out to be 10.8 µM; in assay [2] it was 11.7 µM; in assay [3], 98.1 µM; in assay [4] it was 7.08 µM; in [5], 10.8 µM; in assay [6] it was 7.2 µM. Moreover, the values for the TGI in [7], in [9] and in assay [10] were 27.5 µM, 30.6 µM and 8.96 µM, respectively.

On to `COc1ccc(/C(=N\NC(=S)NN)C(c2ccc(OC)cc2)C2C(=O)Oc3ccccc32)cc1` (stereo unspecified), for which the GI50 in assay [1], in [2], in [3], in [4], in [6] and in assay [8] was above 100 µM in each case. Besides, the GI50 in assay [10] is above 100 µM. Moreover, the TGI in assay [1], in assay [2], in assay [3], in [4], in assay [5] and in assay [6] was above 100 µM in each case. The TGI in assay [8] and in assay [10] was above 100 µM each time.

For `N#Cc1ccc(NC(=O)C(CC(=O)OCc2ccccc2)NC(=O)OCc2ccccc2)cc1` (stereo unspecified), the GI50 in assay [1], in assay [2], in assay [3], in [5], in [7] and in assay [8] was above 100 µM throughout. Also, the GI50 in [10] is above 100 µM. Also, the TGI in assay [1], in assay [2], in assay [3], in [5], in [6] and in assay [7] was above 100 µM each time. Besides, the TGI in [8] and in assay [10] was above 100 µM each time.

Take `CC1(C)CC2C(=O)c3ccccc3NC2c2ccccc21` (stereo unspecified): the TGI in assay [1] is above 100 µM; in assay [2], 22.1 µM; in assay [4] it was above 22.8 µM; in assay [5] it was above 100 µM; in assay [6], above 100 µM; in assay [7] it was above 100 µM. For the same compound, the TGI in assay [8] was above 100 µM; in assay [9] it was above 100 µM; in [10], 8.58 µM.

On to `NC(=S)NN/C=C(\C=Nc1ccccc1)[N+](=O)[O-]`, for which the TGI in [1], in assay [2], in [3], in assay [4], in [5] and in assay [6] was above 100 µM each time. Also, the TGI in assay [8], in assay [9] and in assay [10] was above 100 µM each time.

In the case of `CCOC(=O)C1SC(=Nc2ccc(Cl)cc2)N=C1C` (stereo unspecified), the TGI in [1] was found to be 56.1 µM; in [2] it was 32.8 µM; in assay [4] it was 33 µM; in assay [5] it was 40.9 µM; in [6], 35.9 µM; in assay [7] it was 35.2 µM. Moreover, the TGI in [8] is 45.2 µM; in assay [9], 36.2 µM; in assay [10], 36.3 µM.

`O=C(Nc1ccc(Cl)c(Cl)c1)NS(=O)(=O)c1cnccc1Oc1ccc(F)cc1`: the GI50 is 3.26 µM in assay [1]; 2.97 µM in assay [2]; 3.87 µM in assay [3]; 3.64 µM in assay [4]; 2.53 µM in [6]; 3.42 µM in [7]. Also, the values for the GI50 in assay [8], in assay [9] and in assay [10] were 2.68 µM, 6.14 µM and 3.8 µM, respectively. The TGI was above 100 µM in assay [1]; 7.59 µM in assay [2]; 18.2 µM in assay [3]; 24.6 µM in assay [4]; 7.55 µM in assay [6]; 37.2 µM in [7]. Moreover, the TGI in [8] was 44.4 µM; in assay [9], 51.2 µM; in assay [10], above 100 µM.

For the compound `COc1cc2c(cc1OC)C(C(=O)c1cccc(OC)c1OC)C(=O)N(C)CC2` (stereo unspecified), the TGI in [1], in assay [2], in [3], in assay [5], in [6] and in assay [7] was above 100 µM throughout. In addition, the TGI in assay [9] and in assay [10] was above 100 µM each time.

On to `COc1ccc(C(=O)c2ccc([As]=O)cc2)cc1` (stereo unspecified), for which the GI50 was 0.0454 µM in [1]; 0.041 µM in [2]; 0.181 µM in assay [3]; 0.0432 µM in assay [4]; 0.0281 µM in [6]; 0.0218 µM in assay [7]. The results for the GI50 in [8], in assay [9] and in assay [10] were 0.132 µM, 0.0412 µM and 0.059 µM, respectively. Besides, the TGI came to 0.182 µM in assay [1]; 0.166 µM in [2]; 0.346 µM in assay [3]; 0.163 µM in assay [4]; 0.0861 µM in [6]; 0.0615 µM in assay [7]. The figures for the TGI in assay [8], in assay [9] and in assay [10] were 0.293 µM, 0.183 µM and 0.188 µM, respectively.

Take `CC(C)(C)OC(=O)NCCCCCCCn1c2c(c3ccccc3c1=O)C(=O)c1ccccc1-2`: the GI50 in [1] was 30.5 µM; in [2], 63.7 µM; in assay [3], 31.6 µM; in [4], 20.7 µM; in assay [5], 50.4 µM; in [6], 37.2 µM. For the same compound, the GI50 in assay [7] was 28.9 µM; in assay [8], above 100 µM; in [10], 16.2 µM. Besides, the TGI was above 100 µM in assay [1]; above 100 µM in assay [2]; above 100 µM in assay [3]; 38.8 µM in assay [4]; above 100 µM in assay [5]; above 100 µM in assay [6]. Also, the figures for the TGI in assay [7], in [8] and in assay [10] were 89.5 µM, above 100 µM and 43.5 µM, respectively.

On to `O=c1oc2ccc(I)cc2c(=O)n1-c1ccc(Cl)cc1F`, for which the GI50 in [1] is 1.68 µM; in assay [2], 4.96 µM; in assay [4], 0.988 µM; in assay [5], 0.416 µM; in [6], 0.516 µM; in assay [7], 1.51 µM. Moreover, the GI50 was 1.53 µM in assay [8], 2 µM in assay [9] and 1.44 µM in assay [10]. Also, the TGI in [1] turned out to be 19 µM; in assay [2] it was 19.9 µM; in [4], 6.71 µM; in [5] it was 2.98 µM; in assay [6] it was 3.49 µM; in assay [7] it was 24.5 µM. For the same compound, the TGI in assay [8] is 8.77 µM; in assay [9] it was 7.42 µM; in assay [10] it was 5.32 µM.
